Measured values: publication PMC11955804, “Histidine-rich enantiomeric peptide coacervates enhance antigen sequestration and presentation to T cells” (Chemical Science, 2025)

Experiments:
[1] = tested on: BMDCs overlaid with DOBW cells; assay: In vitro antigen presentation assay, MHC class II (BMDCs + DOBW hybridoma, IL-2 ELISA); conditions: DOBW overlay; for IL-2 levels at 4 °C compared to 37 °C controls: OVA-loaded coacervates, DCs at 4 °C, ELISA
Method: To test internalization mechanisms, we utilized in vitro antigen presentation assays (Fig. 4A). Here, bone marrow-derived dendritic cells (BMDCs) are treated with coacervates loaded with the model antigen ovalbumin (OVA). […] Secretion of IL-2 in response to peptide-MHC recognition is an indirect measure of coacervate uptake and can be quantified using ELISA (enzyme-linked immunosorbent assay) (Fig. 4A). […] We next used pharmacological inhibitors of endocytic mechanisms to explore mechanisms of cell entry (Fig. 4E). BMDCs were treated with inhibitors of clathrin-mediated endocytosis (chlorpromazine, CPZ),[58] dynamin-dependent endocytosis (dynasore, Dyn),[59] macropinocytosis (wortmannin, Wort),[60] cholesterol (methyl β-CD),[61] and IPA3 the regulatory domain of PAK1 (IPA-3)[62] for one h prior to antigen presentation assays.
Cellular uptake and antigen presentation assays
Uptake of coacervates by BMDCs was measured using in vitro antigen presentation assays.
BMDCs were plated in 96-well round-bottom plates (1×10^5 cells/well) and maintained at 4°C or
treated with 10 mM deoxy glucose and 10 mM sodium azide in PBS (ATP depletion) for 1 h prior
to addition of OVA-loaded coacervates. Final OVA concentration was 1 g/mL for time-
dependent measurements and 10 g/mL for comparison between enantiomers. Cells maintained at
37°C and complete RPMI media served as controls. Soluble OVA and PBS treated cells were used as controls for antigen delivery. Following treatment (2 h, 4 h, 24 h, 48 h, or 72 h), BMDCs were
washed to remove extracellular coacervates and DOBW hybridoma cells (1:5, DC: DOBW) were
overlaid for 16 h. The cells were then centrifuged at 300 × g for 5 min, and the supernatant was
collected for IL-2 quantitation by ELISA according to the manufacturer protocol (Biotechne,
#DY402). The amount of IL-2 produced under each condition was measured.
Inhibition of coacervate uptake was measured by adding the inhibitors 1 h
prior to coacervate treatment for 24 h followed by hybridoma overlay and IL-2 measurements.

[2] = Optical microscopy of coacervate formation (LLPS); format: physicochemical; conditions: optical microscopy, 1× PBS; across multiple synthesis batches
Description: (§1) NaCl) was used to study ionic strength effects. The absorbance was further converted to turbidity using methods previously described 1 and data was plotted as relative turbidity.
(§2) Optical microscopy and dynamic light scattering (DLS)
Droplets were visualized in 1×PBS using NCI Leica DMC4500 microscope in reflection mode with differential interference contrast. Images were captured with a DMC4500 camera under the control of Leica LAS X software (version 3.4.2). […]

[3] = Rheology testing of coacervate suspensions; format: physicochemical
Method: as §1, §2
Droplets were visualized in 1×PBS using NCI Leica DMC4500 microscope in reflection mode with differential interference contrast. Images were captured with a DMC4500 camera under the control of Leica LAS X software (version 3.4.2). Coacervate size was measured using 1 mM peptide solutions (1×PBS, pH 7.4) on a ZEN 3600 Zetasizer (Malvern Instruments, UK) using DLS-Zen 0040 specialized cuvettes. The results were reported as the means of three measurements, with 14 scans for each measurement.
Transmission electron microscopy (TEM)
Peptide solutions prepared for TEM were applied directly to 200-mesh, carbon-coated copper grids for 2 min and stained with 1% uranyl formate for 1 min. Excess stain was blotted using filter paper. Brightfield images were taken with a JEOL JEM-1400 transmission electron microscope with a NANOSPRT15 camera at an accelerating voltage of 120 kV.
Viscosity of the peptide solutions (1 mM or 2 mM) was tested using an ARES 2000ex rotational rheometer (TA Instruments, New Castle, DE). Peptides were freshly solubilized, and 170 µL of each was pipetted onto the rheometer stage. A 20-mm parallel plate geometry was lowered to a gap of 200 µm. Storage modulus (G′) and loss modulus (G″) were measured as a function of angular frequency (1–10 rad/s) with 1% strain. Viscosity was measured as a function […]
of shear rate (1–100 s-1). Separately, viscosity was measured using a Hagen-Poiseuille viscometer (RheoSense microVISC, San Ramon, CA) at a shear rate of 2500 s-1 to confirm viscosity differences at two different concentrations (1 mM and 2 mM).
Computational simulations
All simulations were performed using GROMACS 2023 2,3 and the CHARMM36m 4 force field. The necessary force field parameters and input files were generated using AlphaFold 5 predicted structures coupled with CHARMM-GUI 6. A single peptide chain was solvated in a 5-nm cubic box. […]

[4] = tested on: hiPSC-CMs; assay: Confocal microscopy of cellular uptake in hiPSC-CMs; format: cell-based, human; conditions: for interaction with the cell membrane of hiPSC-CMs: confocal microscopy; for cellular uptake / localization in hiPSC-CMs: eGFP loaded coacervates (100 nM eGFP), 30 min, 37 °C, confocal
Method: Stem cell-derived cardiomyocytes and confocal microscopy
Wild type hiPSCs (WT iPSC 11) were received from the Genome Engineering and Stem Cell Center at Washington University School of Medicine. hiPSCs were cultured in mTeSR Plus […]
medium ([…] Technologies, USA) on 6-well plates coated with Matrigel (1:100, Corning) and grown at 37 °C with 5% CO2. Cells were grown to 80–90% confluency and then passaged as clusters using Versene (Thermo Scientific, USA) into 6-well plates for hiPSC maintenance and […]
into 24-well plates for hiPSC differentiation. Once hiPSCs reached 90% confluence, they were differentiated into cardiomyocytes using small-molecule manipulation of Wnt signaling 10. Non-cardiomyocytes were removed via lactate purification on days 20 and 22 before replating singularized hiPSC cardiomyocytes (hiPSC-CMs) at 40,000 cells per 35-mm glass-bottom dish. hiPSC-CMs were treated with enantiomeric leucine or valine coacervates loaded with eGFP protein (Novus Biologicals, Catalog number: NBP2-34923; 50 μL, final concentration of 100 nM eGFP) for 30 min at 37°C. Samples were fixed with 2% paraformaldehyde (PFA) and three PBS washes (10 min at RT). The cell membrane was stained with wheat germ agglutinin (WGA; Fisher Scientific, Catalog number: W32466; 0.25 μL/mL) conjugated to Alexa Fluor 647 (10 min at RT), followed by three PBS washes (5 minutes at RT). Confocal micrographs of singular hiPSC-CMs were acquired using a Leica Sp8 Lightning single-photon confocal microscope […]
numerical aperture oil immersion objective, two HyD GaAsP detectors, and two high-sensitivity photomultiplier tube detectors. Images were collected as z-stacks (presented as top or bottom view, and single plane) and by Nyquist sampling (or greater) as previously described 11.
All animal experiments were conducted under approved protocols by the Institutional Animal Care and Use Committee (IACUC) at Washington University in St Louis. Femoral and tibial bone marrow from C57BL/6 mice were collected and RBCs lysed using ACK buffer. The cells were plated at 5×10^6 cells per petri dish (150 mm) and differentiated for 7–9 days in complete RPMI-1640 medium (containing 10% heat-inactivated FBS), 55 µM β-mercaptoethanol, 1 mM sodium pyruvate, 10 mM HEPES, 1× MEM non-essential amino acids, 20 ng/mL GM-CSF, 10

[5] = angular frequency 1–10 rad/s, 1% strain

Row | coacervate formation [2] | fold increase in G′ compared to valine droplets [3, 5] | viscosity of coacervate suspension ([3]; parallel plate rheology at fixed shear rate, 1 or 2 mM peptide, compared to valine or proline variants) | fold increase in G′ compared to proline [3, 5] | Substance | IL-2 levels at 4 °C compared to 37 °C controls [1] | interaction with the cell membrane of hiPSC-CMs [4] | cellular uptake / localization in hiPSC-CMs [4] | IL-2 production compared to (GHGLY)4 at the same antigen dose ([1]; coacervates loaded with 1 μM OVA, pre-treatment 2-72 h)
1 | Consistent coacervate formation | ~3 fold | greater viscosity | – | (GHGLY)4 [GL 20] | significantly lower IL-2 levels | interacted with and traversed the cell membrane | confirmed their localization within the cells | –
2 | Consistent coacervate formation | – | – | 2 fold | (GHGVY)4 [GV 20] | significantly lower IL-2 levels | this behavior was not observed | confirmed their localization within the cells | significantly higher
